Data as given in US12441703B2, “Carboxamides as modulators of sodium channels” (VERTEX PHARMACEUTICALS INCORPORATED, priority 2019, dated 2025).

The compounds below were run against human NaV 1.8 (Homo sapiens, UniProt Q9Y5Y9) (assay: E-VIPR assay for detecting and measuring NaV inhibition properties). Settings: E-VIPR assay conducted in the absence of human serum (compounds marked *); HEK cells expressing truncated human NaV 1.8; read-out: IC50.
Type: cell-based
Outline: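 HEK cells with truncated human NaV1.8 plus KIR2.1 BacMam, hexyl dye loaded 20 min, compound 30 min at room temperature, 11-point 3-fold series […], 0.625% DMSO, with or without human serum. E-VIPR biphasic stimulation at 10 Hz for 10 s; membrane-potential response read as normalized coumarin/oxonol ratio.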

Chain of human NaV 1.8 (Q9Y5Y9 whole entry, looked up, the tested form may be a part): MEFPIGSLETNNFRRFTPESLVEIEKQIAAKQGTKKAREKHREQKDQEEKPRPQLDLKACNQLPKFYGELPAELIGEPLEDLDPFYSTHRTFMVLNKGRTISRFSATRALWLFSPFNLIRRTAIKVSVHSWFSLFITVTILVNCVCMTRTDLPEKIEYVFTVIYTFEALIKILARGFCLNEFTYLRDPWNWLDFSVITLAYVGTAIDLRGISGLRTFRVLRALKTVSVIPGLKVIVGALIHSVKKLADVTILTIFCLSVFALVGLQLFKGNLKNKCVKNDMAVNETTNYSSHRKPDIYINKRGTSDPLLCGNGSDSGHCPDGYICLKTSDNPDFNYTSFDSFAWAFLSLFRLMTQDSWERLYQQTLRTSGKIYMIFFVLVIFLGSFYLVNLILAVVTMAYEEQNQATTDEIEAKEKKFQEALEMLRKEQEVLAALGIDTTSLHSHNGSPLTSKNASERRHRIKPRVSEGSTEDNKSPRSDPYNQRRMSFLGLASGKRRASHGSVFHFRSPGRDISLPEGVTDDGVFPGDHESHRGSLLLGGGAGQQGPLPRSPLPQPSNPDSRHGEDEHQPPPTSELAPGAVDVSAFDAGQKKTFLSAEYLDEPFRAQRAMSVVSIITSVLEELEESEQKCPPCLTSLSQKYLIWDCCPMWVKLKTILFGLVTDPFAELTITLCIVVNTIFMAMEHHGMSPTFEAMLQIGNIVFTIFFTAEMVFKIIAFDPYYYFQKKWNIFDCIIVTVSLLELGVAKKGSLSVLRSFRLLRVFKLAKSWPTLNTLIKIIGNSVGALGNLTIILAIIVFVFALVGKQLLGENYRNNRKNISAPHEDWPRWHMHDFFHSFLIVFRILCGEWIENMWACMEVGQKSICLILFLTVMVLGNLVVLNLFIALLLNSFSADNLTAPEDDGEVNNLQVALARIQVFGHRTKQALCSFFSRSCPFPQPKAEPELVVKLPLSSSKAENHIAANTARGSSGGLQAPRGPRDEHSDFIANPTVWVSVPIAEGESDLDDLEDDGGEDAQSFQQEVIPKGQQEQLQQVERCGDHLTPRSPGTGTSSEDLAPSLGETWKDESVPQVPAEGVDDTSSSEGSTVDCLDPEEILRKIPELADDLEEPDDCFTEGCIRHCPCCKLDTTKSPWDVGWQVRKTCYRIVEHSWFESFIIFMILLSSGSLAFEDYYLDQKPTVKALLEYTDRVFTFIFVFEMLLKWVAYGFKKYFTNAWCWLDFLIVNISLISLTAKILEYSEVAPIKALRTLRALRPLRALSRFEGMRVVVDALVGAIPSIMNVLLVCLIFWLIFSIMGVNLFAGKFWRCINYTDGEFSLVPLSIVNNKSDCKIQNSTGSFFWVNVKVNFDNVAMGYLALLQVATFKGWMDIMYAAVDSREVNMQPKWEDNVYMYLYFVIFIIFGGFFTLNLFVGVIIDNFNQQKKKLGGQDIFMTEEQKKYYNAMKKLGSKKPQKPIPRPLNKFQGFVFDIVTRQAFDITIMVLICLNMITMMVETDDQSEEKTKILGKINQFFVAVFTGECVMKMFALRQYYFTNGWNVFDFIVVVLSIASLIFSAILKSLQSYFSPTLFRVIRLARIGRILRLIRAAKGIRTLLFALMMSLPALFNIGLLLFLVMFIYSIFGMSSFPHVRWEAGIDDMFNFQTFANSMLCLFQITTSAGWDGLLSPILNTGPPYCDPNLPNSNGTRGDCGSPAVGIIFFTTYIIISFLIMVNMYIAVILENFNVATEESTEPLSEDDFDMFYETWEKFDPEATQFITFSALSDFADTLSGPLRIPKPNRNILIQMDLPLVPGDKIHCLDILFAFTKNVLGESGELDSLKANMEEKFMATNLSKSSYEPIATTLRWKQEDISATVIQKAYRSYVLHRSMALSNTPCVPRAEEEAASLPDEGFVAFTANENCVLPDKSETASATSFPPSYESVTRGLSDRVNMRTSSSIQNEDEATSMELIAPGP

IC50 [nM] | Compound
3 | COc1cc(OC(F)(F)F)ccc1Oc1cc(OC)c(C)c(Cl)c1C(=O)Nc1ccnc(C(N)=O)c1 [Compound 363, 4-[[2-chloro-4-methoxy-6-[2-methoxy-4-(trifluoromethoxy)phenoxy]-3-methyl-benzoyl]amino]pyridine-2-carboxamide]

Same assay, conditions: E-VIPR assay conducted in the presence of human serum; HEK cells expressing truncated human NaV 1.8; read-out: IC50

Compound | IC50 [nM]
[2H]C([2H])([2H])Oc1cc(OC(F)(F)F)ccc1Oc1cc(C#CC(C)(C)C)cc(F)c1C(=O)Nc1ccnc(C(N)=O)c1 [Compound 1022] | 190
NC(=O)c1cc(NC(=O)c2c(Oc3ccccc3)ccc(C(F)(F)F)c2F)ccn1 [Compound 22, 4-[[2-fluoro-6-phenoxy-3-(trifluoromethyl)benzoyl]amino]pyridine-2-carboxamide] | 540
COc1c(Oc2ccc(Cl)c(F)c2C(=O)Nc2ccnc(C(N)=O)c2)ccc(OC(F)(F)F)c1F [Compound 305, 4-[[3-chloro-2-fluoro-6-[3-fluoro-2-methoxy-4-(trifluoromethoxy)phenoxy]benzoyl]amino]pyridine-2-carboxamide] | 2.3
COc1cc(OC(F)(F)F)ccc1Oc1cc(OC)c(C(F)(F)F)c(C)c1C(=O)Nc1ccnc(C(N)=O)c1 [Compound 283, 4-[[4-Methoxy-6-[2-Methoxy-4-(Trifluoromethoxy)Phenoxy]-2-Methyl-3-(Trifluoromethyl)Benzoyl]Amino]Pyridine-2-Carboxamide] | 4.2
Cc1cc(Oc2cc(C(F)(F)F)ccc2C(=O)Nc2ccnc(C(N)=O)c2)ccc1F [Compound 166, 4-[[2-(4-fluoro-3-methyl-phenoxy)-4-(trifluoromethyl)benzoyl]amino]pyridine-2-carboxamide] | > 3000
[2H]C([2H])([2H])Oc1cc(OC(F)(F)F)ccc1Oc1cc(-c2ccccc2C(F)(F)F)cc(F)c1C(=O)Nc1ccnc(C(N)=O)c1 [Compound 95, 4-[[2-fluoro-6-[2-(trideuteriomethoxy)-4-(trifluoromethoxy)phenoxy]-4-[2-(trifluoromethyl)phenyl]benzoyl]amino]pyridine-2-carboxamide] | 140
Cc1c(C(F)(F)F)ccc(Oc2ccc(OC(F)(F)F)c(F)c2)c1C(=O)Nc1ccnc(C(N)=O)c1 [Compound 139, 4-[[6-[3-fluoro-4-(trifluoromethoxy)phenoxy]-2-methyl-3-(trifluoromethyl)benzoyl]amino]pyridine-2-carboxamide] | 33
COc1cc(Oc2cc(C(F)(F)F)ccc2C(=O)Nc2ccnc(C(N)=O)c2)ccc1F [Compound 167, 4-[[2-(4-fluoro-3-methoxy-phenoxy)-4-(trifluoromethyl)benzoyl]amino]pyridine-2-carboxamide] | > 3000
Cc1c(C(F)(F)F)ccc(Oc2ccc(F)cc2Cl)c1C(=O)Nc1ccnc(C(N)=O)c1 [Compound 122, 4-[[6-(2-chloro-4-fluoro-phenoxy)-2-methyl-3-(trifluoromethyl)benzoyl]amino]pyridine-2-carboxamide] | 25
COc1c(Oc2cnc(C(F)(F)F)c(OC)c2C(=O)Nc2cc(C(N)=O)ncc2C)ccc(OC(F)(F)F)c1F [Compound 334, N-(2-carbamoyl-5-methyl-4-pyridyl)-5-[3-fluoro-2-methoxy-4-(trifluoromethoxy)phenoxy]-3-methoxy-2-(trifluoromethyl)pyridine-4-carboxamide] | 7
COc1c(Oc2cc(C(F)(F)F)c(C)c(F)c2C(=O)Nc2ccnc(C(N)=O)c2)ccc(OC(F)(F)F)c1F [Compound 323, 4-[[2-fluoro-6-[3-fluoro-2-methoxy-4-(trifluoromethoxy)phenoxy]-3-methyl-4-(trifluoromethyl)benzoyl]amino]pyridine-2-carboxamide] | 0.8
NC(=O)c1cc(NC(=O)c2c(Oc3ccc(F)cc3Cl)cccc2C(F)(F)F)ccn1 [Compound 79, 4-[[2-(2-chloro-4-fluoro-phenoxy)-6-(trifluoromethyl)benzoyl]amino]pyridine-2-carboxamide] | > 3000
COc1c(C(F)(F)F)ccc(Oc2ccc(F)cc2Cl)c1C(=O)Nc1ccnc(C(N)=O)c1 [Compound 59, 4-[[6-(2-chloro-4-fluoro-phenoxy)-2-methoxy-3-(trifluoromethyl)benzoyl]amino]pyridine-2-carboxamide] | 100
COc1c(Oc2cc(C(F)(F)F)c(OC)c(F)c2C(=O)Nc2ccc(C(N)=O)nc2)ccc(F)c1F [Compound 377, 5-[[6-(3,4-difluoro-2-methoxy-phenoxy)-2-fluoro-3-methoxy-4-(trifluoromethyl)benzoyl]amino]pyridine-2-carboxamide] | 21
COc1c(Oc2ccc(C(F)(F)F)c(OC)c2C(=O)Nc2ccnc(C(N)=O)c2)ccc(F)c1F [Compound 58, 4-[[6-(3,4-difluoro-2-methoxy-phenoxy)-2-methoxy-3-(trifluoromethyl)benzoyl]amino]pyridine-2-carboxamide] | 150
Cc1cc(OC(F)(F)F)ccc1Oc1ccc(C(F)(F)F)c(C)c1C(=O)Nc1ccnc(C(N)=O)c1 [Compound 133, 4-[[2-methyl-6-[2-methyl-4-(trifluoromethoxy)phenoxy]-3-(trifluoromethyl)benzoyl]amino]pyridine-2-carboxamide] | 9
CCc1c(C(F)(F)F)ccc(Oc2ccc(OC(F)(F)F)cc2OC)c1C(=O)Nc1ccnc(C(N)=O)c1 [Compound 183, 4-[[2-ethyl-6-[2-methoxy-4-(trifluoromethoxy)phenoxy]-3-(trifluoromethyl)benzoyl]amino]pyridine-2-carboxamide] | 14

The remaining lines, values ahead:

IC50 [nM] | Compound
625 | COc1cc(OC(F)(F)F)ccc1Oc1ccc(C(F)(F)F)c(OCC2CC2)c1C(=O)Nc1ccnc(C(N)=O)c1 [Compound 84, 4-[[2-(cyclopropylmethoxy)-6-[2-methoxy-4-(trifluoromethoxy)phenoxy]-3-(trifluoromethyl)benzoyl]amino]pyridine-2-carboxamide]
39.3 | CCc1nc(C(=O)Nc2ccnc(C(N)=O)c2)c(Oc2ccc(OC(F)(F)F)cc2OC)cc1C(F)(F)F [Compound 274, N-(2-carbamoyl-4-pyridyl)-6-ethyl-3-[2-methoxy-4-(trifluoromethoxy)phenoxy]-5-(trifluoromethyl)pyridine-2-carboxamide]
170 | COc1cc(OC(F)(F)F)ccc1Oc1cc(C(F)(F)F)c(OC)nc1C(=O)Nc1ccnc(C(N)=O)c1 [Compound 275, N-(2-Carbamoyl-4-Pyridyl)-6-Methoxy-3-[2-Methoxy-4-(Trifluoromethoxy)Phenoxy]-5-(Trifluoromethyl)Pyridine-2-Carboxamide]
22 | COc1cc(C(F)(F)C(F)(F)F)ccc1Oc1ccc(C(F)(F)F)c(F)c1C(=O)Nc1ccnc(C(N)=O)c1 [Compound 44, 4-[[2-fluoro-6-[2-methoxy-4-(1,1,2,2,2-pentafluoroethyl)phenoxy]-3-(trifluoromethyl)benzoyl]amino]pyridine-2-carboxamide]
140 | COc1cc(OC(F)(F)F)ccc1Oc1cc2c(c(C)c1C(=O)Nc1ccc(C(N)=O)nc1)OC(F)(F)O2 [Compound 203]
1.8 | COc1cc(OC(F)(F)F)ccc1Oc1cc(OC)c(C(F)(F)F)c(F)c1C(=O)Nc1ccnc(C(N)=O)c1 [Compound 352, 4-[[2-fluoro-4-methoxy-6-[2-methoxy-4-(trifluoromethoxy)phenoxy]-3-(trifluoromethyl)benzoyl]amino]pyridine-2-carboxamide]
